pIC50: −log10 of the molar value.
Legend:
Kasumi-1 cells [1] = assay: Loss of mitochondrial membrane potential, DiOC6(3) flow cytometry, Kasumi-1; assay type: cell-based
Experimental: (§1) Respectively plate 3×10^5˜5×10^5 cells/ml of Kasumi-1, NB4-R1, HL60 and U937cells in dishes. Setting control group (0 μM) and groups with SM1044 in various concentrations, incubate for 24 h and 48 h. Add 20 nM DiOC6(3) and incubate for 15 min at 37° C. in the dark. Wash cells with PBS twice, and resuspend the cells in 100 μLPBS, analyzing by flow cytometry. The cells which are DiOC6(3) negative are those that lose mitochondrial membrane potential. […] There are at least two broad pathways that lead to Apoptosis, an “Extrinsic” and an “Intrinsic” Pathway, and the loss of mitochondrial membrane potential is very closely related to intrinsic pathway.

[2] = tested on: caspase-3, caspase-8 and/or caspase-9 in HL60 cells; assay: Western blot of apoptosis-related proteins, HL60; assay type: cell-based; conditions: HL60, 24 hours
Experimental: (§2) Respectively plate 3×10^5˜5×10^5 cells/ml of NB4-R1, HL60 and U937 cells in dishes. Setting control group (0 μM) and groups with SM1044 in various concentrations, and incubating for 24 hours. Extracting whole protein of the cells, detect the quantitive variation of […] related proteins (PARP, caspase-3, caspase-8, caspase-9) by antibodies through western blot. Caspase family plays an important role in mediating apoptosis. There are at least two broad pathways that lead to Apoptosis. One is extracellular signals activating intracellular caspase-8, etc, the other is mitochondria-derived activators of caspases activating caspase-9, etc. Therefore the activaigted caspases activate apoptotic excutants—caspase3 to induce apoptosis, and PARP is the substrate of caspase-3.

U937 cells [3] = assay: Annexin V-FITC/PI flow cytometry apoptosis, U937; assay type: cell-based; conditions: U937, 24-48 hours, various concentrations
Experimental: (§3) Respectively plate 3×10^5˜5×10^5 cells/m1 of Kasumi-1, NB4-R1, HL60 and U937cells in dishes. Setting control group (0 μM) and groups with SM1044 in various concentrations, incubate for 24 h and 48 h. Harvest cells and wash cells with pre-cooling phosphate buffer twice. Resuspend the cells in 200 μL binding buffer, and add 5 μL Annexin V-FITC and 5 μL propidium iodide (PI), gently mixing, incubating for 15 min at room temperature in the dark, analyzing by flow cytometry in 1 hour.

U937 cells [4] = assay: MTT inhibition test, U937 cells; assay type: cell-based; conditions: Homo sapiens, U-937, 48 h
Experimental: (§4) First dissolve SM1044 in triple distilled water, concentration: 1 mg/ml, then choose typical AML cell lines such as Kasumi-1, NB4-R1, HL60 and U937 cells to perform the experiments. Plate 2.5×10^5 cells in dishes, respectively, blank group, control group without SM1044, and groups with SM1044 in various concentrations, and 3 wells for each concentration. Add MTT (5 mg/ml) to each well after incubating for a certain period, and incubate the plate for further 4 h. Centrifuge and aspirate 180 μl supernatant. Add 180 μl DMSO to each well, and place the plate a shaking table for 15 min. Measure the absorbance(A) at 570 nm using a microplate reader, and calculate the half maximal inhibitory concentration (IC50).

Kasumi-1 cells [5] = assay: Cell cycle analysis, PI flow cytometry, Kasumi-1; assay type: cell-based; conditions: for cells in G0/G1 phase / cells in G2/M phase / cells in S phase: 24 hours
Experimental: (§5) Plate 5×10^5/mL Kasumi-1 cells and HL60 cells respectively in dishes. Setting control group (0 μM) and groups with SM1044 in various concentrations, and incubating for 24 hours (kasumi-1 cells) or 12 hours (HL60 cells). Harvest the cells, wash cells with PBS twice, and add 70% ice cold ethanol overnight to fix the cells. Wash cells with PBS, and resuspend the cells in PBS with 10 mg/ml RNase, incubating at 37° C. for 30 min. Add 50 μg/ml propidium iodide (PI), analyzing the distribution of DNA contents by flow cytometry in 1 hour.

NB4-R1 cells [6] = assay: Loss of mitochondrial membrane potential, DiOC6(3) flow cytometry, NB4-R1; assay type: cell-based
Experimental: as §1

HL60 cells [7] = assay: Cell cycle analysis, PI flow cytometry, HL60; assay type: cell-based; conditions: for cells in G0/G1 phase / cells in G2/M phase / cells in S phase: 12 hours
Experimental: as §5

[8] = tested on: caspase-3, caspase-8 and/or caspase-9 in U937 cells; assay: Western blot of apoptosis-related proteins, U937; assay type: cell-based; conditions: U937, 24 hours
Experimental: as §2

oncogene c-myc = assay: Western blot of c-myc expression in HL60 cells; assay type: cell-based; conditions: HL60, above 1 μM/L, 24 hours
Experimental: Plate 3×10^5/mL HL60 cells in dishes. Setting control group (0 μM) and groups with SM1044 in various concentrations, and incubating for 24 hours. Extracting whole protein of the cells, detect the variation of expression of oncogene c-myc by c-myc antibody through western blot. Over-expression of oncogene c-myc is a character of HL60 cells.

AML1-ETO fusion gene = assay: RT-PCR of AML1-ETO fusion gene mRNA in Kasumi-1 cells; assay type: cell-based; conditions: Kasumi-1, 24 hours
Experimental: (§6) Plate 1×10^7 Kasumi-1 cells with 20 mL medium in dish. Setting control group (0 μM) and groups with SM1044 in various concentrations, and incubating for 24 hours. Extract the whole RNA, and detect the variation of fusion gene at the mRNA level by RT-PCR (FIG. 5A). […] Plate 5×10^5 Kasumi-1 cells in a dish. Setting control group (0 μM) and groups with SM1044 in various concentrations, and incubating for 24 hours. Extracting whole protein of the cells, detect the variation of AML1-ETO fusion protein by ETO antibody through western blot (FIG. 5B). […] It can be concluded that SM1044 doesn't effect the transcription of AML1-ETO fusion gene, but can induce the degradation of the fusion protein. As the typical fusion gene of AML-M2b, AML1-ETO fusion protein plays an important role in the occurrence of leukemia, which can be a target for medical treatments.

[9] = tested on: transplanted tumor with HL60 cells; assay: Mouse transplanted tumor model, HL60; assay type: in vivo; conditions: mice, HL60 tumor under the skin, intraperitoneal 0.125 ml per day, 18-35 d
Experimental: (§7) Developing mouse transplanted tumor models with acute myeloid leukemic cell lines such as Kasumi-1, HL60 and U937 cells, inject 1×10^7 leukemic cells under the skin. When the tumors are 5 mm in diameter, divide the mice into two groups, control group(con) and groups with SM1044 in various concentrations. Mice intraperitoneally infused with 0.125 ml (kasumi-1 and H160 cells) or 0.1 ml (U937 cells) SM1044 per day, while mice in control groups get equivalent saline, for a course of 18-35 d, measuring the tumors everyday.

Kasumi-1 cells [10] = assay: Annexin V-FITC/PI flow cytometry apoptosis, Kasumi-1; assay type: cell-based; conditions: Kasumi-1, 24-48 hours, various concentrations
Experimental: as §3

HL60 cells [11] = assay: Annexin V-FITC/PI flow cytometry apoptosis, HL60; assay type: cell-based; conditions: HL60, 24-48 hours, various concentrations
Experimental: as §3

AML1-ETO fusion protein = target: T1, AML1-ETO fusion protein (Homo sapiens, UniProt Q01196+Q06455); assay: Western blot of AML1-ETO fusion protein in Kasumi-1 cells; assay type: cell-based; conditions: Kasumi-1, 1 μM/L, 24 hours
T1 construct: Extracting whole protein of the cells; endogenous in cells; host or cells: Kasumi-1 cells
T1 sequence (Q01196+Q06455 fused): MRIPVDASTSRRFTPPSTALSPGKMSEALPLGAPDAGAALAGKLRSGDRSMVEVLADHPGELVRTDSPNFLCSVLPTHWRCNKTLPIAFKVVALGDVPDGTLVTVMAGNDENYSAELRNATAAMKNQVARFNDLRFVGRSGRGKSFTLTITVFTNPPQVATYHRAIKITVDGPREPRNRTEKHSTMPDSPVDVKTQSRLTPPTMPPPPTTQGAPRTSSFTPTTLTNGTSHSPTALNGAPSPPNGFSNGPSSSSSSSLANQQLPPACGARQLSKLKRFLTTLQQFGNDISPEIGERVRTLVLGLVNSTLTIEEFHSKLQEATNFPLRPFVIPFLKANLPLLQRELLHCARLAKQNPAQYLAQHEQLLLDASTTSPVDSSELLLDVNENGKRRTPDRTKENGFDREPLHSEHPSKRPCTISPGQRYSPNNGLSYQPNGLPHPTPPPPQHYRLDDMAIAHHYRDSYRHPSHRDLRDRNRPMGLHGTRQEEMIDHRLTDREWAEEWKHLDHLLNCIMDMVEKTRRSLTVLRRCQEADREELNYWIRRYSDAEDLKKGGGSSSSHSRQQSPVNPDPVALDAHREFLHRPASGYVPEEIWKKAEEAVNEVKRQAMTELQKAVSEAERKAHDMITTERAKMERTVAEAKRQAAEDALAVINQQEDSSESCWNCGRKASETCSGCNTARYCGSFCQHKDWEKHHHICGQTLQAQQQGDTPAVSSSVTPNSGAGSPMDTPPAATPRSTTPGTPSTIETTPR
Experimental: as §6

Kasumi-1 cells [12] = assay: MTT inhibition test, Kasumi-1 cells; assay type: cell-based; conditions: Homo sapiens, 48 h
Experimental: as §4

NB4-R1 cells [13] = assay: MTT inhibition test, NB4-R1 cells; assay type: cell-based; conditions: 48 h
Experimental: as §4

U937 cells [14] = assay: Loss of mitochondrial membrane potential, DiOC6(3) flow cytometry, U937; assay type: cell-based
Experimental: as §1

[15] = tested on: caspase-3, caspase-8 and/or caspase-9 in NB4-R1 cells; assay: Western blot of apoptosis-related proteins, NB4-R1; assay type: cell-based; conditions: NB4-R1, 24 hours
Experimental: as §2

[16] = tested on: transplanted tumor with U937 cells; assay: Mouse transplanted tumor model, U937; assay type: in vivo; conditions: mice, U937 tumor under the skin, intraperitoneal 0.1 ml per day, 18-35 d
Experimental: as §7

HL60 cells [17] = assay: MTT inhibition test, HL60 cells; assay type: cell-based; conditions: Homo sapiens, HL-60, 48 h
Experimental: as §4

[18] = tested on: transplanted tumor with Kasumi-1 cells; assay: Mouse transplanted tumor model, Kasumi-1; assay type: in vivo; conditions: mice, Kasumi-1 tumor under the skin, intraperitoneal 0.125 ml per day, 18-35 d
Experimental: as §7

HL-60 cells = assay: Loss of mitochondrial membrane potential, DiOC6(3) flow cytometry, HL-60; assay type: cell-based
Experimental: as §1

NB4-R1 cells [19] = assay: Annexin V-FITC/PI flow cytometry apoptosis, NB4-R1; assay type: cell-based; conditions: NB4-R1, 24-48 hours, various concentrations
Experimental: as §3

C[C@H]1[C@@H](OCCNCCO[C@H]2O[C@@H]3O[C@@]4(C)CC[C@H]5[C@H](C)CC[C@@H]([C@H]2C)[C@@]35OO4)O[C@@H]2O[C@@]3(C)CC[C@H]4[C@H](C)CC[C@@H]1[C@@]24OO3.O=C(O)/C=C\C(=O)O [SM1044, diarteethe amine maleate]
percentage of DiOC6(3) negtive Kasumi-1 cells (Kasumi-1 cells [1]; 0.1 μM, 24 h): 24.1%
percentage of DiOC6(3) negtive Kasumi-1 cells (Kasumi-1 cells [1]; 0.1 μM, 48 h): 44.9%
percentage of DiOC6(3) negtive Kasumi-1 cells (Kasumi-1 cells [1]; 1 μM, 24 h): 33.8%
percentage of DiOC6(3) negtive Kasumi-1 cells (Kasumi-1 cells [1]; 1 μM, 48 h): 47.1%
percentage of DiOC6(3) negtive Kasumi-1 cells (Kasumi-1 cells [1]; 5 μM, 24 h): 63.2%
percentage of DiOC6(3) negtive Kasumi-1 cells (Kasumi-1 cells [1]; 5 μM, 48 h): 79.2%
activated apoptosis-related proteins (caspase-3, caspase-8 and/or caspase-9) [2]: increase
apoptosis induction (U937 cells [3]): can induce apoptosis
pIC50 (U937 cells [4]): 7.70
cells in G0/G1 phase (Kasumi-1 cells [5]; Kasumi-1, 0.1 μM): 59.62%
cells in G2/M phase (Kasumi-1 cells [5]; Kasumi-1, 0.1 μM): 6.01%
cells in S phase (Kasumi-1 cells [5]; Kasumi-1, 0.1 μM): 34.37%
cells in G0/G1 phase (Kasumi-1 cells [5]; Kasumi-1, 1 μM): 71.75%
cells in G2/M phase (Kasumi-1 cells [5]; Kasumi-1, 1 μM): 6.70%
cells in S phase (Kasumi-1 cells [5]; Kasumi-1, 1 μM): 21.75%
cells in G0/G1 phase (Kasumi-1 cells [5]; Kasumi-1, 5 μM): 71.07%
cells in G2/M phase (Kasumi-1 cells [5]; Kasumi-1, 5 μM): 6.00%
cells in S phase (Kasumi-1 cells [5]; Kasumi-1, 5 μM): 21.92%
cell cycle block (Kasumi-1 cells [5]; Kasumi-1, 24 hours): blocked in G0/G1 phase
percentage of DiOC6(3) negative NB4-R1 cells (NB4-R1 cells [6]; 0.1 μM, 24 h): 13.9%
percentage of DiOC6(3) negative NB4-R1 cells (NB4-R1 cells [6]; 0.1 μM, 48 h): 16.3%
percentage of DiOC6(3) negative NB4-R1 cells (NB4-R1 cells [6]; 1 μM, 24 h): 17.1%
percentage of DiOC6(3) negative NB4-R1 cells (NB4-R1 cells [6]; 1 μM, 48 h): 33.0%
percentage of DiOC6(3) negative NB4-R1 cells (NB4-R1 cells [6]; 5 μM, 24 h): 15.0%
percentage of DiOC6(3) negative NB4-R1 cells (NB4-R1 cells [6]; 5 μM, 48 h): 30.0%
cells in G0/G1 phase (HL60 cells [7]; HL60, 0.1 μM): 41.60%
cells in G2/M phase (HL60 cells [7]; HL60, 0.1 μM): 3.80%
cells in S phase (HL60 cells [7]; HL60, 0.1 μM): 54.61%
cells in G0/G1 phase (HL60 cells [7]; HL60, 1 μM): 44.12%
cells in G2/M phase (HL60 cells [7]; HL60, 1 μM): 8.00%
cells in S phase (HL60 cells [7]; HL60, 1 μM): 47.88%
cells in G0/G1 phase (HL60 cells [7]; HL60, 5 μM): 54.48%
cells in G2/M phase (HL60 cells [7]; HL60, 5 μM): 8.00%
cells in S phase (HL60 cells [7]; HL60, 5 μM): 37.52%
cell cycle block (HL60 cells [7]; HL60, 12 hours): blocked in G0/G1 phase
activated apoptosis-related proteins (caspase-3, caspase-8 and/or caspase-9) [8]: increase
expression of oncogene c-myc (oncogene c-myc): completely inhibit
variation of AML1-ETO fusion gene at the mRNA level (AML1-ETO fusion gene): no effect on the transcription of fusion gene
tumor size compared with control group [9]: obviously little than controls
apoptosis induction (Kasumi-1 cells [10]): can induce apoptosis
apoptosis induction (HL60 cells [11]): can induce apoptosis
degradation of AML1-ETO fusion protein (AML1-ETO fusion protein): can induce the degradation of AML1-ETO fusion protein
pIC50 (Kasumi-1 cells [12]): 6.77
pIC50 (NB4-R1 cells [13]): 7.68
percentage of DiOC6(3) negative U937 cells (U937 cells [14]; 0.1 μM, 24 h): 4.3%
percentage of DiOC6(3) negative U937 cells (U937 cells [14]; 0.1 μM, 48 h): 5.9%
percentage of DiOC6(3) negative U937 cells (U937 cells [14]; 1 μM, 24 h): 5.2%
percentage of DiOC6(3) negative U937 cells (U937 cells [14]; 1 μM, 48 h): 5.6%
percentage of DiOC6(3) negative U937 cells (U937 cells [14]; 5 μM, 24 h): 9.4%
percentage of DiOC6(3) negative U937 cells (U937 cells [14]; 5 μM, 48 h): 16.2%
activated apoptosis-related proteins (caspase-3, caspase-8 and/or caspase-9) [15]: increase
tumor size compared with control group [16]: obviously little than controls
pIC50 (HL60 cells [17]): 7.40
tumor size compared with control group [18]: obviously little than controls
percentage of DiOC6(3) negative HL-60 cells (HL-60 cells; 0.1 μM, 24 h): 23.8%
percentage of DiOC6(3) negative HL-60 cells (HL-60 cells; 0.1 μM, 48 h): 61.7%
percentage of DiOC6(3) negative HL-60 cells (HL-60 cells; 1 μM, 24 h): 25.6%
percentage of DiOC6(3) negative HL-60 cells (HL-60 cells; 1 μM, 48 h): 77.1%
percentage of DiOC6(3) negative HL-60 cells (HL-60 cells; 5 μM, 24 h): 48.5%
percentage of DiOC6(3) negative HL-60 cells (HL-60 cells; 5 μM, 48 h): 81.1%
apoptosis induction (NB4-R1 cells [19]): can induce apoptosis

Reference: patent publication US20130317095A1, “Use of Artemisine Derivatives and Pharmaceutical Salts Thereof” (Shanghai Institute of Materia Medica, Chinese Academy of …, priority 2011, published 2013)
